Results from PMC11567856, “A novel peptide‐based tau aggregation inhibitor as a potential therapeutic for Alzheimer's disease and other tauopathies” (Alzheimer's & Dementia, 2024).
Where a SMILES comes first, the peptide text is derived from it. [ ]: non-standard residue; d: D form.

Columns and labels:
[1] = tested on: Drosophila expressing hTau^2N4R in retinal photoreceptors; experiment: Drosophila eye experiments (GMR‐hTau^2N4R rough eye, eye size); type: in vivo, Drosophila melanogaster
Experimental: Drosophila eye experiments: UAS-Tau^2N4R flies (BDSC_51363) were recombined to GMR-GAL4 (BDSC_8605) driver to generate stable GMR-hTau^2N4R lines (BDSC_51361). GMR-GAL4 was used as the “healthy” control. Progeny was reared on standard fly food supplemented with RI-AG03; 0.08, 0.8, 20, and 40 μM at 25°C. As controls, Tau, and driver-alone flies were incubated without the inhibitor. Freshly eclosed flies were monitored daily using a light microscope and 1-day-old live flies were imaged (n = 5/treatment) and processed on ImageJ to measure eye width. Ommaditial disorderliness quantification was done using Flynotyper ImageJ plugin.[48] Quantification of rough eye phenotype: Quantitative analysis of the total distance ommatidial disorderliness index of all stable ommatidia [Odld] was performed using the ImageJ plugin “Flynotyper.”[48] Analysis was performed using images taken by light microscope, and 150 ommatidia were considered and ranked by stability and distance to the center. Between four and five animals per genotype were analyzed. Scanning Electron Microscopy (SEM): Flies were euthanized, fixed in 2.5% glutaraldehyde in PBS, and had three 5-min washes in PBS. Samples were dehydrated for 30-min at each ethanol concentration: 50%, 70%, 80%, 90%, and 100%. Samples were transferred to hexamethyldisilazane for two 30-min changes, after which hexamethyldisilazane was sublimated overnight. […]

[2] = tested on: hTau^2N4R aggregates in Elav/hTau^2N4R flies; experiment: AFM of insoluble Tau fraction from fly heads; type: in vivo, Drosophila melanogaster; details: 6 weeks of treatment, 0.08 µM inhibitor (Figure 6 legend), insoluble Tau prep, n = 3, p = 0.0045
Experimental: […] Decapitated fly heads were homogenized in TBS/sucrose buffer (50 mM Tris‐HCl pH 7.4, 175 mM NaCl, 1 M sucrose, 5 mM EDTA and protease inhibitor cocktail). Samples were spun for 2 min at 1000 g, retaining the supernatant, which was then spun at 100,000 g for 30 min at 4°C. The supernatant included the aqueous soluble fraction and monomeric Tau “NS1.” The pellet was re‐suspended at ∼20°C–25°C in 5% SDS/TBS buffer (50 mM Tris‐HCl pH 7.4, 175 mM NaCl, 5% SDS, and protease inhibitor cocktail) and spun at 100,000 g for 30 at 25°C. The pellet “NP1” was washed three times with water to remove the remaining SDS from the fractionation and re‐suspended in 1X PBS. A solid glass bead was added to each sample and incubated overnight in a rotor at 4°C. AFM: NP1 (5 µL) was diluted in 1X PBS and 25 µL of the sample was placed in a freshly cleaved 10 mm mica disc. These were incubated at ∼20°C–25°C for 5 min. Samples were rinsed four times with ultrapure water and dried with compressed air. Samples were imaged in the air with a digital multimode Nanoscope IV AFM operating in tapping mode with an aluminum‐coated non‐contact/Tapping mode probe (resonance frequency 320 kHz and force constant 42 N/m). The images are representative of the sample and were taken at random points on the sample with a scan rate of 1–2 Hz. […] Quantification of aggregates was carried out using ImageJ software.

[3] = in vitro; details: isolated enzyme trypsin
Experimental: 15% SDS PAGE gels of AG03 (100 µM) and RI-AG03 (100 µM) treated with and without equimolar
Trypsin concentration for 24-hours at 37 °C.

[4] = target: T1, VQIVYK (Homo sapiens, UniProt P10636); experiment: ThT fluorescence, aggregation of VQIVYK peptide; type: biochemical; details: ThT end-point 24 h; 20 µM VQIVYK, 20 µM RI‐AG03 (equimolar), 5 µM heparin, pH 7.4; alone or combined with VQIINK
T1 construct: ^306VQIVYK^311 hexapeptide (motif found in all six isoforms)
Experimental: (§1) Fluorescence was measured (λex = 442 nm, λem = 483 nm), and data were normalized. […] The addition of inhibitor to the growth phase was controlled by adding an equivalent volume of buffer alone.
(§2) FIGURE 3 Lead peptide RI‐AG03 dose‐response and target specificity. […] (C) Concentration‐dependent inhibition of by Tau^Δ1‐250 by RI‐AG03. […] (E) Concentration‐dependent inhibition of by Tau^2N4R by RI‐AG03. […] (F) log10 scatter graph of Tau^2N4R inhibition by RI‐AG03 employing a curve fitting algorithm to calculate the IC50 at 5 µM. Experiments were conducted in triplicate and error bars were reported as standard deviation. One factor repeated measures ANOVA + Tukey post hoc statistical analysis: p > 0.05, *p ≤ 0.05, **p ≤ 0.01, ***p ≤ 0.001.

[5] = target: T2, Tau^Δ1‐250 (Homo sapiens, UniProt P10636); experiment: ThT fluorescence, heparin-induced aggregation of Tau^Δ1‐250; type: biochemical
T2 construct: Tau^Δ1‐250 (an aggregate prone truncated version of full‐length Tau); made in house; host or cells: E. coli BL21(DE3)
T2 sequence (P10636 568-758, stated change not applied): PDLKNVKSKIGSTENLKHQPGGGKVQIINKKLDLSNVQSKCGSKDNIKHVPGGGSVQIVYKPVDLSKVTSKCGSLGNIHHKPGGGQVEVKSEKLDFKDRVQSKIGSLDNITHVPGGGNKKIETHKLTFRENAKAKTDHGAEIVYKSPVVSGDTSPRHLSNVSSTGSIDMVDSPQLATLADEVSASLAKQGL
Experimental: as §1
Experiments were conducted in triplicate and error bars were reported as standard deviation. Statistical analysis: p > 0.05, *p ≤ 0.05, **p ≤ 0.01, ***p ≤ 0.001.

[6] = target: T3, VQIINK (Homo sapiens, UniProt P10636); experiment: ThT fluorescence, aggregation of VQIINK peptide; type: biochemical; details: ThT end-point 24 h; 20 µM VQIINK, 20 µM RI‐AG03 (equimolar), 5 µM heparin, pH 7.4; alone or combined with VQIVYK
T3 construct: ^275VQIINK^280 hexapeptide (motif found in three isoforms)
Experimental: as §1, §2

[7] = target: T2, Tau^Δ1‐250; experiment: Congo-red staining of Tau^Δ1‐250 fibrils; type: biochemical; details: Tau^Δ1‐250 incubated in the presence of RI‐AG03 (Figure S11)
Experimental: Tau filament formation is expected to coincide with a reduction in disordered structure and an increase in β‐sheet content, even as the intermediary on‐pathway oligomers form.[67] […] However, the off‐pathway Tau aggregates that we have previously described have reduced β‐sheet content.[69] To study the β‐sheet content of the large amorphous aggregates formed in the presence of RI‐AG03, samples were analyzed using time‐resolved circular dichroism (CD) to investigate spectra changes indicative of secondary structure in the presence of RI‐AG03 over 5 h (Tau^Δ1‐250 aggregation plateaus at ∼5 h) (Figure 4E). The negative transition at 195 nm is characteristic of random coil structures being present within the Tau^Δ ^1‐250 (blue). […] Although challenging to deconvolute the increase in the negative ellipticity between ∼205 and 235 nm is consistent with the appearance of secondary structural elements including β‐strands. […] This reduction in β‐sheet content is corroborated by congo‐red staining, where the strong apple‐green birefringence observed for the Tau^Δ1‐250 fibrils was eliminated when the Tau^Δ1‐250 was incubated in the presence of RI‐AG03 (Figure S11).

For CC[C@@H](C)[C@@H](NC(=O)[C@@H](CCCCNC(C)=O)NC(=O)[C@@H](Cc1ccc(O)cc1)NC(=O)[C@@H](CCCCN)NC(=O)[C@H]1CCCN1C(=O)CNC(=O)[C@@H](CCCNC(=N)N)NC(=O)[C@@H](CCCNC(=N)N)NC(=O)[C@@H](CCCNC(=N)N)NC(=O)[C@@H](CCCNC(=N)N)NC(=O)[C@@H](CCCNC(=N)N)NC(=O)[C@@H](CCCNC(=N)N)NC(=O)[C@@H](CCCNC(=N)N)NC(=O)[C@@H](CCCNC(=N)N)NC(C)=O)C(=O)N[C@H](CCC(N)=O)C(=O)N[C@@H](C(=O)NCC(=O)N[C@H](CCCNC(=N)N)C(N)=O)C(C)C [RI‐AG03] (Ac-[dR][dR][dR][dR][dR][dR][dR][dR]G[dP][dK][dY][dK](Ac)[dI][dQ][dV]G[dR]-NH2), the “eye size of hTau^2N4R transgenics” value ([1]; GMR‐hTau^2N4R flies reared on food with 40 µM RI‐AG03, 25°C, versus untreated, n = 5/treatment) was “significantly improved”, the “ommatidial disorganization (Odld, Flynotyper)” value ([1]; GMR‐hTau^2N4R flies treated with RI‐AG03, n=4-5/condition) was “significantly improved” and the “reduction in oligomeric and fibrillar Tau species (AFM)” value [2] was 73%. For the same compound, the metabolised at 24 h, 100 µM [3] was 19%, the “effect on aggregation of VQIVYK peptide” value [4] was “dramatically reduced” and the IC50 [5] was 7.83 µM. The “inhibition of Tau^Δ1‐250 aggregation” value ([5]; ThT end-point after 24 h, 37°C, 20 µM Tau^Δ1‐250, 20 µM peptide (equimolar), 5 µM heparin, 30 mM Tris, 1 mM DTT, 15 µM ThT, pH 7.4, triplicate) was about 94%, the “effect when added during the growth phase of Tau^Δ1‐250 aggregation” value ([5]; ThT kinetics 12 h, 20 µM Tau^Δ1‐250, 20 µM RI‐AG03 added 1 h after aggregation was initiated) was “halted any further aggregation” and the “effect on aggregation of VQIINK peptide” value [6] was “dramatically reduced”. For the same compound, the “apple‐green birefringence of Tau^Δ1‐250 fibrils (congo‐red)” value [7] was “eliminated”.
